Laboratory results reported in patent publication US20200138056A1, “ANIMAL FEED SUPPLEMENT” (MOOTRAL SA, priority 2017, published 2020).

Tests used:
ruminal fluid [1] = experiment: in vitro Hohenheim gas test (HGT), volatile fatty acids (VFA) by HPLC; type: cell-based, sheep; details: Table 2; 98.8 μg/ml
Procedure: (§1) The in vitro Hohenheim gas test (HGT) including the preparation of all buffers and reagents was carried out according to the protocol of Menke and Steingass (1988), “Menke K. H., Steingass H., Estimation of the energetic feed value obtained from chemical analysis and gas production using rumen fluid, Anim. Res. Dev. 28, 7-55”, the contents of which are incorporated herein by reference.
Briefly, ruminal fluid was strained through four layers of gauze (1 mm pore size, type 17 MedPro, Novamed AG, Flawil, Switzerland), before being mixed with preheated, reduced Menke buffer (Menke and Steingass, 1988). The ruminal fluid/buffer mixture was then dispensed into pre-warmed incubation units containing the respective test additives. […] After 8 hours, total gas and liquid volumes were recorded from the calibrated scale printed on the incubation units and fermentation was terminated by decanting only the incubation liquid from the incubation units while fermentation gas was left inside. […]
Fermentation gas was analysed on a Hewlett Packard gas chromatograph (model 5890 Series II, Avondale, Pa., USA) for methane concentration. For the analysis of the volatile fatty acids (VFA), samples were prepared according to the method of Doane et al. (1998) and determined by HPLC (LaChrom, L-7000 series, Hitachi Ltd., Tokyo, Japan) following the protocol of Ehrlich et al. (1981). […]

ruminal fluid [2] = experiment: in vitro Hohenheim gas test (HGT), methane concentration in fermentation gas; type: cell-based, sheep; details: 98.8 μg/ml; for Average Reduction (%) / Percentage of Control (First Run) / Percentage of Control (Second Run): methane; for Average Reduction (%): average of two runs
Procedure: as §1
Briefly, ruminal fluid was strained through four layers of gauze (1 mm pore size, type 17 MedPro, Novamed AG, Flawil, Switzerland), before being mixed with preheated, reduced Menke buffer (Menke and Steingass, 1988). The ruminal fluid/buffer mixture was then dispensed into pre-warmed incubation units containing the respective test additives. Each airtight syringe unit contained 25 ml of a ruminal fluid/buffer mixture (1:3; v/v), 300 mg dried and ground total mixed ration (TMR) and […] of the test substrate prepared to give a desired concentration ml^−1. Each test substrate and controls were tested in six replicates, with each run including a substrate control (rumen fluid plus 300 mg dried and ground substrate of the total mixed ration (TMR) fed to the fistulated sheep from which the ruminal fluid was obtained). Each substrate was also tested on different days to allow for variability in the microbial community. This mixture was incubated for 8 hours at a constant temperature of 39° C. After 8 hours, total gas and liquid volumes were recorded from the calibrated scale printed on the incubation units and fermentation was terminated by decanting only the incubation liquid from the incubation units while fermentation gas was left inside. Then […] of gas was drawn from the incubation units with a Hamilton syringe (Hamilton, AG, Bonaduz, Switzerland) through a gas-tight septum covering the second outlet of the modified units. The main constituents of the flavonoid mix were naringin and neohesperidin at a ratio of 2.10:0.92. Monensin, a polyether antibiotic isolated from Streptomyces cinnamonensis, was used as a positive control.
Fermentation gas was analysed on a Hewlett Packard gas chromatograph (model 5890 Series II, Avondale, Pa., USA) for methane concentration. For the analysis of the volatile fatty acids (VFA), samples were prepared according to the method of Doane et al. (1998) and determined by HPLC (LaChrom, L-7000 series, Hitachi Ltd., Tokyo, Japan) following the protocol of Ehrlich et al. (1981). Reduction in methane emission results in accumulation of H2, which leads to the decreases of acetate:propionate ratio and acetate:butyrate ratio. This decreased ratio indicates an increase in propionate and butyrate (as formation of propionate and butyrate uses up the H2). The increase in propionate would then result in an increase of meat productivity in ruminants, while the increase in butyrate results in an increase of milk productivity in ruminants.
The in vitro Hohenheim gas test (HGT) was used to measure average reduction in methane using a composition comprising allicin and a green tea extract and a composition comprising allicin and a pomegranate extract. The green tea and pomegranate extracts were purchased from Ethical Natural Inc. (USA).
A composition comprising allicin and the flavonoid mix used in Example 1 was also tested. Monensin, a polyether antibiotic isolated from Streptomyces cinnamonensis, was used as a positive control.

Structure (SMILES): CC[C@@]1([C@@H]2O[C@@H]([C@H]3O[C@@](O)(CO)[C@H](C)C[C@@H]3C)C[C@@H]2C)CC[C@H]([C@]2(C)CC[C@]3(C[C@H](O)[C@@H](C)[C@@H]([C@@H](C)[C@@H](OC)[C@H](C)C(=O)O)O3)O2)O1 [Monensin]
- Butyrate Percentage of Control (%) (ruminal fluid [1]): 73%
- Propionate Percentage of Control (%) (ruminal fluid [1]): 116%
- Average Methane Concentration (%) (First Run) (ruminal fluid [2]; Table 1, 8 h, 39° C.): 8.89%
- Average Methane Concentration (%) (Second Run) (ruminal fluid [2]; Table 1, 8 h, 39° C.): 9.71%
- Average Reduction (%) (ruminal fluid [2]; Table 1): 27%
- Percentage of Control (First Run) (ruminal fluid [2]; Table 1): 73%
- Percentage of Control (Second Run) (ruminal fluid [2]; Table 1): 74%
- Average Methane Concentration (%) (First Run) (ruminal fluid [2]; Table 3): 8.2%
- Average Methane Concentration (%) (Second Run) (ruminal fluid [2]; Table 3): 9.9%
- Average Reduction (%) (ruminal fluid [2]; Table 3): 27%
- Percentage of Control (First Run) (ruminal fluid [2]; Table 3): 66%
- Percentage of Control (Second Run) (ruminal fluid [2]; Table 3): 80%
- Average Methane Concentration (%) (First Run) (ruminal fluid [2]; Table 4): 8.1%
- Average Methane Concentration (%) (Second Run) (ruminal fluid [2]; Table 4): 7.1%
- Average Reduction (%) (ruminal fluid [2]; Table 4): 33%
- Percentage of Control (First Run) (ruminal fluid [2]; Table 4): 67%
- Percentage of Control (Second Run) (ruminal fluid [2]; Table 4): 66%
